Tests used:
[1] = test system: explanted human hair follicles; settings: administration to explanted human hair follicles; cited from earlier work
hair growth in mice = settings: applied topically to the skin of wild-type mice; cited from earlier work
human CRTH2 receptor = biological target: T1, human CRTH2 receptor (Homo sapiens, UniProt Q9Y5Y4); assay: Human CRTH2 receptor membrane radioligand binding assay (SPA, [3H]-PGD2); settings: displacement of [3H]-PGD2 (1 nM) from CHO-K1-hCRTH2 cell membranes, 3 h room temperature
T1 construct: host or cells: CHO-K1 (CHO-K1-hCRTH2 cells); membranes prepared in house from the purchased cell line
T1 sequence (Q9Y5Y4 1-395): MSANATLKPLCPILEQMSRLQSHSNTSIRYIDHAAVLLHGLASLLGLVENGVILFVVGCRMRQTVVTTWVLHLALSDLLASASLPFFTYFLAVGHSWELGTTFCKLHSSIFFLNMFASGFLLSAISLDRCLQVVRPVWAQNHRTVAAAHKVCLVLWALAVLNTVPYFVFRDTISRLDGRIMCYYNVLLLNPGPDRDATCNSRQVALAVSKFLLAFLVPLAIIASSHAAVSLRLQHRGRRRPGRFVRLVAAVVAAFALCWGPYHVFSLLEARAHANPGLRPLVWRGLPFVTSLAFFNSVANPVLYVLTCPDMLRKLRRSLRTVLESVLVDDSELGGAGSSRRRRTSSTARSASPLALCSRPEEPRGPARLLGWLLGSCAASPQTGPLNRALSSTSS
Method in brief: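 SPA binding using membranes from CHO-K1 cells expressing human CRTH2 (0.5–10 μg protein/well) with 1 nM [3H]-PGD2 in Tris pH 7.4 buffer with 0.1% BSA, 3 h at room temperature. Non-specific binding defined with 1 μM PGD2 or 10 μM CAY10471; inhibition calculated from specific binding.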

CCCCC[C@H](O)/C=C/[C@H]1C(=O)C[C@H](O)[C@@H]1C/C=C\CCCC(=O)O [PGD2, prostaglandin D2]
hair growth [1]: inhibited hair growth
hair growth (hair growth in mice): inhibited hair growth

Cc1nn(Cc2ccc(C(=O)Nc3cccc(F)c3)cc2)c(C)c1CC(=O)O [Example 9.1]
Ki (human CRTH2 receptor): 1480 nM

Cc1c(CC(=O)O)c(-c2ccccc2)nn1Cc1ccc(NC(=O)c2ccc(C(F)(F)F)cc2)cc1 [Example 2.11]
Ki (human CRTH2 receptor): 1.2 nM

CCc1c(CC(=O)O)c(C)nn1Cc1ccc(NC(=O)c2ccc(C(F)(F)F)cc2)cc1 [Example 2.52]
Ki (human CRTH2 receptor): 0.5 nM

Cc1nn(Cc2ccc(OCc3ccc(Cl)c(C(F)(F)F)c3)cc2)c(C)c1CC(=O)O [Example 13.5]
Ki (human CRTH2 receptor): 36 nM

Cc1nn(Cc2ccc([S+]([O-])Cc3ccc4ccccc4c3)cc2)c(C)c1CC(=O)O (centres unmarked) [Example 19.1]
Ki (human CRTH2 receptor): 43.5 nM

Cc1nn(Cc2ccc(NS(=O)(=O)c3ccccc3)cc2)c(C)c1CC(=O)O [Example 5.1]
Ki (human CRTH2 receptor): 43.9 nM

CCc1nn(Cc2ccc(NC(=O)C(C)C)cc2)c(CC)c1CC(=O)O [Example 2.34]
Ki (human CRTH2 receptor): 4.3 nM

Cc1cc(Cn2nc(C)c(CC(=O)O)c2C)ccc1NC(=O)c1ccccc1 [Example 7.1]
Ki (human CRTH2 receptor): 407 nM

CCc1nn(Cc2ccc(C(=O)N[C@H]3CC[C@H](c4ccccc4)CC3)cc2)c(CC)c1CC(=O)O [Example 9.21]
Ki (human CRTH2 receptor): 7.8 nM

CCc1nn(Cc2ccc(NC(=O)c3ccc(Br)cc3Cl)cc2)c(CC)c1CC(=O)O [Example 2.22]
Ki (human CRTH2 receptor): 1.9 nM

CCCc1c(C)cccc1C(=O)Nc1ccc(Cn2nc(CC)c(CC(=O)O)c2CC)cc1 [Example 2.27]
Ki (human CRTH2 receptor): 4.3 nM

Cc1cc(Cl)ccc1C(=O)Nc1ccc(Cn2nc(C)c(CC(=O)O)c2C)cc1 [Example 1.2]
Ki (human CRTH2 receptor): 16.3 nM
